The text below walks through data of patent publication US8916599B2, “1H-benz imidazole-5-carboxamides as anti-inflammatory agents” (Orexo AB, priority 2008, dated 2014).

The structures appear in SMILES notation.

For one assay, the target named is T1, recombinant human mPGES-1 (Homo sapiens, UniProt O14684).
T1 construct: made in house; host or cells: Rosetta E. coli (microsomal/membrane fraction)
T1 sequence (O14684 1-152): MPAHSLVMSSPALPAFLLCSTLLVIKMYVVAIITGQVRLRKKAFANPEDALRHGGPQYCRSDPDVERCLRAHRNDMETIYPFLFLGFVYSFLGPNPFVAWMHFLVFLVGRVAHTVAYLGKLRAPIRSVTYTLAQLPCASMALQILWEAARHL
The assay is described as follows: mPGES-1 inhibition test (microsomes, PGH2 substrate, HTRF detection of PGE2). The assay is classed as biochemical.
Details: not given
The protocol: Microsomes from Rosetta E. coli bacteria expressing recombinant human mPGES-1 is dissolved in 0.1 M KPi pH 7.4 buffer containing 2.5 mM GSH. 50 μl of the enzyme is subsequently dispensed in a 384-well plate. 0.5 μl of the inhibitor dissolved in DMSO at is thereafter added to each well and incubated for 25 minutes at room temperature. Subsequently, 2 μl of PGH2 dissolved in an appropriate solvent is added to each well and after one minute the acidified stop solution containing FeCl2 is added. 4 μl of the total volume is transferred to a separate plate and diluted 750-fold in two separate steps before HTRF detection of PGE2.
The HTRf detection is performed by the use of a commercially available kit from CisBio essentially according to the manufacturer's protocol. Briefly, 10 μl of the diluted sample is transferred to a white 384-well plate. 5 μl of d2 and 5 μl Eu3+-Cryptate labeled anti-PGE2 is added to each well containing samples by the use of a Multidrop. The plate is covered with a plastic self-adhesive film, centrifuged at 1200 rpm for 1 minute and subsequently stored at +4° C. over night.
After over night incubation the fluorescence is measured by the use of an appropriate microplate reader. The fluorescence of europium cryptate, and d2 are measured using the following excitation and emission wavelength, europium cryptate: λmax^ex=307 nm, λmax^em=620 nm and d2: λmax^ex=620 nm, λmax^em=665 nm), respectively. The extent of the specific FRET is measured as a ratio of the emission intensity at 665 nm vs. that at 620 nm. A standard curve using synthetic PGE2 is used to quantify the amount of PGE2 in unknown samples.
For orientation: Time-resolved FRET reads energy transfer from a long-lived donor to a nearby acceptor.
For orientation: inhibition means how much of the control response was suppressed. `COc1cc2[nH]c(Nc3c(Cl)cccc3Cl)nc2cc1C(=O)NCC(F)(F)C(F)(F)C(F)(F)F` [Example 632, N-(2,2,3,3,4,4,4-heptafluoro-butyl)-2-(2,6-dichlorophenylamino)-6-methoxy-1H-benzimidazole-5-carboxamide]: the inhibition at 10 µM was 99%.

The same assay, now with this note: inhibition of mPGES-1 at 10 μM.
Turning to `Cn1c(Nc2c(Cl)cccc2Cl)nc2cc(C(=O)NCCc3cccnc3)ccc21` [Example 259, 2-(2,6-Dichloro-phenylamino)-1-methyl-1H-benzimidazole-5-carboxylic acid (2-pyridin-3-yl-ethyl)-amide], the inhibition at 10 µM was determined as 89%.

For the compound `O=C(Nc1ccc(Br)c(F)c1)c1cc2nc(Nc3c(Cl)cccc3Cl)[nH]c2cc1F` [Example 121, 2-(2,6-Dichloro-phenylamino)-6-fluoro-1H-benzimidazol-5-carboxylic acid (4-bromo-3-fluoro-phenyl)-amide], the inhibition at 10 µM is 95%.

Regarding `Cn1c(Nc2c(Cl)cccc2Cl)nc2cc(C(=O)NC3CC(C)(C)C3)c(F)cc21` [Example 447, 2-(2,6-Dichlorophenylamino)-N-(3,3-dimethylcyclobutyl)-6-fluoro-1-methyl-1H-benzimidazole-5-carboxamide], the inhibition at 10 µM was 99%.

`Cn1c(Nc2c(Cl)cccc2Cl)nc2cc(C(=O)NC3CCCCC3)ccc21` [compound 317]: the inhibition at 10 µM was determined as 98%.

Regarding `Cn1c(Nc2c(F)cccc2Cl)nc2cc(C(=O)NC3CCC4(CC3)CC4)ccc21` [Example 441, 2-(2-Chloro-6-fluorophenylamino)-1-methyl-N-(spiro[2.5]octan-6-yl)-1H-benzimidazole-5-carboxamide], the inhibition at 10 µM is 97%.

`Cn1c(Nc2c(Cl)cccc2Cl)nc2cc(C(=O)NCc3ncccc3C(F)(F)F)ccc21` [Example 244, 2-(2,6-Dichloro-phenylamino)-1-methyl-1H-benzimidazole-5-carboxylic acid (3-trifluoromethyl-pyridin-2-ylmethyl)-amide]: the inhibition at 10 µM was found to be 96%.

As for `Cn1c(Nc2c(Cl)cccc2Cl)nc2cc(C(=O)NC3CCC4(CC4)C3)ccc21` (stereo not drawn) [Example 436, 2-(2,6-Dichlorophenylamino)-1-methyl-N-(spiro[2.4]heptan-5-yl)-1H-benzimidazole-5-carboxamide], the inhibition at 10 µM was found to be 99%.

On to `Cn1c(Nc2c(Cl)cccc2Cl)nc2cc(C(=O)Nc3cc(N4CCCC4)ccn3)c(F)cc21` [Example 554, 2-(2,6-Dichlorophenylamino)-6-fluoro-1-methyl-N-(4-(pyrrolidin-1-yl)-pyridin-2-yl)-1H-benzimidazole-5-carboxamide], for which the inhibition at 10 µM stood at 84%.

Take `O=C(Nc1cc(Cl)ccn1)c1ccc2c(c1)nc(Nc1c(Cl)cccc1Cl)n2CCN1CCCC1=O` [Example 267, 2-(2,6-Dichloro-phenylamino)-1-[2-(2-oxo-pyrrolidin-1-yl)-ethyl]-1H-benzimidazole-5-carboxylic acid (4-chloro-pyridin-2-yl)-amide]: the inhibition at 10 µM stood at 94%.

`Cn1c(Nc2cc(C(=O)O)ccc2Cl)nc2cc(C(=O)Nc3ccc(Br)cc3)ccc21` [Example 573, 3-(5-(4-Bromophenylcarbamoyl)-1-methyl-1H-benzimidazol-2-yl-amino)-4-chlorobenzoic acid]: the inhibition at 10 µM stood at 60%.

Turning to `O=C(Nc1ccc(Br)cc1)c1cc2nc(Nc3c(Cl)cccc3Cl)[nH]c2cc1OCC(F)(F)F` [Example 590, 2-(2,6-Dichloro-phenylamino)-N-(4-bromo-phenyl)-6-(2,2,2-trifluoroethoxy)-1H-benzimidazole-5-carboxamide], the inhibition at 10 µM is 96%.

For the compound `Cc1cccc(NC(=O)c2ccc3[nH]c(Nc4c(Cl)cccc4Cl)nc3c2)c1` [Example 4, 2-(2,6-Dichloro-phenylamino)-1H-benzimidazole-5-carboxylic acid m-tolylamide], the inhibition at 10 µM was determined as 100%.

Take `O=C(Nc1ccc(I)cc1)c1ccc2[nH]c(Nc3c(Cl)cccc3Cl)nc2c1` [Example 84, 2-(2,6-Dichloro-phenylamino)-1H-benzimidazole-5-carboxylic acid (4-iodo-phenyl)-amide]: the inhibition at 10 µM stood at 100%.

For the compound `O=C(NCc1ccccn1)c1ccc2[nH]c(Nc3c(Cl)cccc3Cl)nc2c1` [Example 235, 2-(2,6-Dichloro-phenylamino)-1H-benzimidazole-5-carboxylic acid (pyridin-2-ylmethyl)-amide], the inhibition at 10 µM is 79%.

Regarding `O=C(Nc1ccc(Br)cc1)c1ccc2[nH]c(Nc3c(Cl)cc(Cl)cc3Cl)nc2c1` [Example 107, 2-(2,4,6-Trichloro-phenylamino)-1H-benzimidazole-5-carboxylic acid (4-bromo-phenyl)-amide], the inhibition at 10 µM stood at 99%.

Turning to `COc1cc2[nH]c(Nc3c(Cl)ccc(CC#N)c3Cl)nc2cc1C(=O)Nc1ccc(Br)cc1` [Example 639, 2-(2,6-Dichloro-3-cyanomethyl-phenylamino)-N-(4-bromphenyl)-6-methoxy-1H-benzimidazol-5-carboxamide], the inhibition at 10 µM is 99%.

Regarding `Cn1c(Nc2c(Cl)cccc2Cl)nc2cc(C(=O)Nc3ccc(Cl)cn3)ccc21` [Example 494, N-(5-Chloropyridin-2-yl)-2-(2,6-dichlorophenylamino)-1-methyl-1H-benzimidazole-5-carboxamide], the inhibition at 10 µM was 99%.

`O=C(Nc1ccc(I)cc1)c1cc2nc(Nc3c(Cl)cccc3Cl)[nH]c2cc1Cl` [Example 57, 2-(2,6-Dichloro-phenylamino)-6-chloro-1H-benzimidazol-5-carboxylic acid (4-iodo-phenyl)-amide]: the inhibition at 10 µM was determined as 96%.

In the case of `O=C(Nc1ccccc1)c1ccc2[nH]c(Nc3c(F)cccc3Cl)nc2c1` [Example 19, 2-(2-Chloro-6-fluoro-phenylamino)-1H-benzimidazole-5-carboxylic acid-phenylamide], the inhibition at 10 µM came out at 91%.

Regarding `O=C(Nc1ncccc1Cl)c1ccc2[nH]c(Nc3c(Cl)cccc3Cl)nc2c1` [Example 186, 2-(2,6-Dichloro-phenylamino)-1H-benzimidazole-5-carboxylic acid (3-chloro-pyridin-2-yl)-amide], the inhibition at 10 µM is 91%.

As to `COc1cc2nc(Nc3c(Cl)cccc3Cl)[nH]c2cc1C(=O)NC1CCCCC1` [Example 199, N-(Cyclohexyl)-2-(2,6-dichlorophenylamino)-6-methoxy-1H-benzimidazole-5-carboxamide], the inhibition at 10 µM is 100%.

With `Cc1cc(NC(=O)c2ccc3nc(Nc4c(Cl)cccc4Cl)[nH]c3c2)ccn1` [Example 193, 2-(2,6-Dichloro-phenylamino)-3H-benzimidazole-5-carboxylic acid (2-methyl-pyridin-4-yl)-amide], the inhibition at 10 µM was 99%.

`COc1cc2c(cc1C(=O)N[C@H]1CC[C@H](C(F)(F)F)CC1)nc(Nc1c(Cl)cccc1Cl)n2C` [Example 369, 2-(2,6-Dichlorophenylamino)-6-methoxy-1-methyl-N-((1r,4r)-4-trifluoromethyl-cyclohexyl)-1H-benzimidazole-5-carboxamide]: the inhibition at 10 µM is 100%.

Consider `Cc1cc(Br)cnc1NC(=O)c1ccc2[nH]c(Nc3c(Cl)cccc3Cl)nc2c1` [Example 183, 2-(2,6-Dichloro-phenylamino)-1H-benzimidazole-5-carboxylic acid (5-bromo-3-methyl-pyridin-2-yl)-amide], for which the inhibition at 10 µM amounted to 100%.

Take `O=C(Nc1ccc(Br)c(F)c1)c1cc2nc(Nc3c(Cl)cccc3Cl)[nH]c2cc1Cl` [Example 54, 2-(2,6-Dichloro-phenylamino)-6-chloro-1H-benzimidazol-5-carboxylic acid (4-bromo-3-fluoro-phenyl)-amide]: the inhibition at 10 µM turned out to be 96%.

With `CC(=O)NCCn1c(Nc2c(Cl)cccc2Cl)nc2cc(C(=O)Nc3cc(Cl)ccn3)ccc21` [Example 278, 2-(2,6-Dichloro-phenylamino)-1-(2-acetylamino-ethyl)-1H-benzimidazole-5-carboxylic acid (4-chloro-pyridin-2-yl)-amide], the inhibition at 10 µM came out at 92%.

Consider `O=C(Nc1ccccc1Cl)c1ccc2[nH]c(Nc3c(Cl)cccc3Cl)nc2c1` [Example 284, 2-(2,6-Dichloro-phenylamino)-1H-benzimidazole-5-carboxylic acid (2-chloro-phenyl)-amide], for which the inhibition at 10 µM worked out at 100%.

Regarding `CN(C)c1cccc(F)c1Nc1nc2cc(C(=O)Nc3ccc(Br)cc3)ccc2n1C` [Example 551, N-(4-Bromophenyl)-2-(2-dimethylamino-6-fluorophenylamino)-1-methyl-1H-benzimidazole-5-carboxamide], the inhibition at 10 µM turned out to be 94%.

In the case of `O=C(N[C@H]1CC[C@@H](C(F)(F)F)CC1)c1cc2nc(Nc3c(Cl)cccc3Cl)[nH]c2cc1F` [Example 169, 2-(2,6-Dichloro-phenylamino)-6-fluoro-1H-benzimidazole-5-carboxylic acid (cis-4-trifluoromethyl-cyclohexyl)-amide], the inhibition at 10 µM was determined as 94%.
